{
  "source": "patent US4269848A",
  "about": "“5-Substituted indan-2-carboxylic acid and functional derivatives” (Lipha, Lyonnaise Industrielle Pharmaceutique, priority 1976, dated 1981)",
  "key": {"[1]": {"test_system": "erythema produced by ultra violet radiation", "test": "Protective effect against erythema from ultra violet radiation (Winder et al.)", "assay_type": "in vivo, albino guinea pigs", "conditions": "Cavia porcellus; albino guinea pig, oral; amount reducing erythema by 50%; read-out: AD50, U.V.", "procedure": "D--The protective effect against inflammation resulting from exposure to radiation was determined in albino guinea pigs using the method of Winder et al (Arch. Inv. Pharmacodyn. 1958, Vol. 116, page 261). The AD50 value was determined for the test substance, namely the amount which, when administered to the animal orally, reduced by 50% the erythema produced by exposing the shaved dorsal skin of the guinea pig to ultra violet radiation."}, "[2]": {"test": "Acute toxicity, LD 50 (oral route), mice", "conditions": "mouse, in vivo", "source_text": "A--The substances are of low toxicity. For example, the LD 50 value (oral route), determined in mice, of various compounds in accordance with the present invention are shown in column A of Table I."}, "[3]": {"test": "Experiment B: clinical case studies, analgesic activity, oral administration", "assay_type": "in vivo", "conditions": "for Tolerance, Biological / Tolerance, Clinical: NAD = Nothing Abnormal Discovered", "procedure": "(§1) The following clinical experimentation was carried out to clinically test various compounds in accordance with the present invention for their anti-inflammatory, analgesic and platelet aggregation or clumping inhibition activites.\nThe following case studies relate to the analgesic activity associated with the oral administration of methyl 5-(4'-dimethylaminobenzoyl)-indan-2-carboxylate.\nDiagnosis: Painful episode against a background of arthrosis of the cervical spine\nTreatment: 600 mg/day for 3 weeks\nDiagnosis: Pains in the right hip when pressure applied, secondary to aseptic osteonecrosis\nTreatment: 600 mg/day for 15 days\nDiagnosis: Arthrosis of the right hip resembling Paget's Disease"}, "[4]": {"test_system": "spasms of pain caused by the intraperitoneal injection of a solution of acetic acid", "test": "Analgesic activity, acetic acid induced spasms of pain (Koster et al.)", "assay_type": "in vivo", "conditions": "mouse, oral; dose reducing spasms of pain by 50%; read-out: AD50, Acetic Acid", "procedure": "B--Analgesic activity in the mouse was determined by the method of Koster et al. (Fed. Proc. 1959, Vol. 18, page 412). The active dose 50 (AD50) value for various compounds in accordance with the present invention was determined, namely, that dose which, when administered orally, reduces by 50% the spasms of pain caused by the intraperitoneal injection of a solution of acetic acid."}, "platelets": {"test_system": "platelets", "test": "In vitro inhibition of platelet aggregation induced by collagen (Born)", "assay_type": "cell-based", "conditions": "read-out: minimal active concentration, Platelet Aggregation Induced By Collagen", "procedure": "E--The anti-inflammatory activity was also determined by the aggregation-inhibiting effect of the compounds in accordance with the present invention, in vitro, on platelets the aggregation of which was induced by collagen, in accordance with the method of Born (Journal of Physiology, 1962, Vol. 162, page 67). It is known that compounds which inhibit the activity or quantity of prostaglandin synthetase will inhibit the formation of prostaglandin PGE2 and the inflammatory and pyretic effect thereof. Since prostaglandin PGE2 also causes an increase in platelet aggregation, this test is an effective indication of anti-inflammatory and anti-pyretic activity due to inhibition of prostaglandin synthetase."}, "[5]": {"test_system": "carrageenin-induced edema", "test": "Anti-inflammatory activity, carrageenin-induced edema test (Winter et al.)", "assay_type": "in vivo", "conditions": "rat, oral; dose inhibiting edema by 30%; read-out: AD30, Carrageenin", "source_text": "The protection afforded, by oral administration of the compound to a rat against edema induced by injecting a suspension of carrageenin under the arch of the foot of the animal was investigated. The AD30 dose is that which inhibits the edema by 30%."}, "platelet aggregation": {"test_system": "platelet aggregation", "test": "Experiment C: clinical case studies, platelet anti-aggregation activity, oral administration", "assay_type": "in vivo", "procedure": "as §1\nThe following case studies relate to the platelet anti-aggregation activity associated with the oral administration of 2'-(N,N-diethylaminoethyl) 5-(2'-thenoyl)-indan-2-carboxylate."}, "[6]": {"conditions": "Case 1, arthrosis of the cervical spine, oral 600 mg/day for 3 weeks"}, "[7]": {"conditions": "Case 1, oral 600 mg/day for 3 weeks"}, "[8]": {"conditions": "Case 2, hip pain secondary to aseptic osteonecrosis, oral 600 mg/day for 15 days"}, "[9]": {"conditions": "Case 2, oral 600 mg/day for 15 days"}, "[10]": {"conditions": "Case 3, arthrosis of the right hip, oral 600 mg/day for 15 days"}, "[11]": {"conditions": "Case 3, oral 600 mg/day for 15 days"}, "[12]": {"conditions": "Case 1, oral 200 mg, before treatment 100%"}, "[13]": {"conditions": "Case 2, oral 200 mg, before treatment 100%"}, "[14]": {"conditions": "Case 3, oral 200 mg, before treatment 100%"}},
  "data": [
    {"smiles": "COC(=O)C1Cc2ccc(C(=O)c3ccc(N(C)C)cc3)cc2C1", "note": "(centres unmarked) [Methyl 5-(4'-dimethylaminobenzoyl)-indan-2-carboxylate]", "values": [
      {"measurement": "ED50", "setting": "[1]", "value": 24, "unit": "mg/kg"},
      {"measurement": "LD50", "setting": "[2]", "value": 1450, "unit": "mg/kg"},
      {"measurement": "Conclusion", "setting": "[3]; [6]", "value": "Good result"},
      {"measurement": "Length of relief", "setting": "[3]; [6]", "value": 4, "unit": "h"},
      {"measurement": "Time taken to relieve pain", "setting": "[3]; [6]", "value": 30, "unit": "min"},
      {"measurement": "Tolerance, Biological", "setting": "[3]; [7]", "value": "NAD"},
      {"measurement": "Tolerance, Clinical", "setting": "[3]; [7]", "value": "NAD (Nothing Abnormal Discovered)"},
      {"measurement": "Conclusion", "setting": "[3]; [8]", "value": "Very good result"},
      {"measurement": "Length of relief", "setting": "[3]; [8]", "value": 4, "unit": "h"},
      {"measurement": "Time to relieve pain", "setting": "[3]; [8]", "value": "less than 15 minutes"},
      {"measurement": "Tolerance, Biological", "setting": "[3]; [9]", "value": "NAD"},
      {"measurement": "Tolerance, Clinical", "setting": "[3]; [9]", "value": "NAD"},
      {"measurement": "Conclusion", "setting": "[3]; [10]", "value": "Good result"},
      {"measurement": "Length of relief", "setting": "[3]; [10]", "value": 2, "unit": "h"},
      {"measurement": "Time to relieve pain", "setting": "[3]; [10]", "value": 30, "unit": "min"},
      {"measurement": "Tolerance, Biological", "setting": "[3]; [11]", "value": "NAD"},
      {"measurement": "Tolerance, Clinical", "setting": "[3]; [11]", "value": "NAD"},
      {"measurement": "ED50", "setting": "[4]", "value": 2.5, "unit": "mg/kg"},
      {"measurement": "minimal effective concentration", "setting": "platelets", "value": 0.25, "unit": "µg/mL"},
      {"measurement": "ED30", "setting": "[5]", "value": 12, "unit": "mg/kg"}
    ]},
    {"smiles": "CCN(CC)CCOC(=O)C1Cc2ccc(C(=O)c3cccs3)cc2C1", "note": "(centres unmarked) [2'-(N,N-diethylaminoethyl) 5-(2'-thenoyl)-indan-2-carboxylate]", "values": [
      {"measurement": "second phase of aggregation with ADP", "setting": "platelet aggregation; Case 1, oral 200 mg", "value": "Inhibition"},
      {"measurement": "Aggregation with collagen, 1 h after taking 200 mg", "setting": "platelet aggregation; [12]", "value": 0, "unit": "%"},
      {"measurement": "Aggregation with collagen, 3 h after taking 200 mg", "setting": "platelet aggregation; [12]", "value": 0, "unit": "%"},
      {"measurement": "Aggregation with collagen 24 hours after the last dose", "setting": "platelet aggregation; Case 1, oral, 24 h after last dose, before treatment 100%", "value": 10, "unit": "%"},
      {"measurement": "second phase of aggregation with ADP", "setting": "platelet aggregation; Case 2, oral 200 mg", "value": 0, "unit": "%"},
      {"measurement": "Aggregation with collagen, 1 h after taking 200 mg", "setting": "platelet aggregation; [13]", "value": 10, "unit": "%"},
      {"measurement": "Aggregation with collagen, 3 h after taking 200 mg", "setting": "platelet aggregation; [13]", "value": 10, "unit": "%"},
      {"measurement": "Aggregation with collagen 24 hours after last dose", "setting": "platelet aggregation; Case 2, oral, 24 h after last dose, before treatment 100%", "value": 15, "unit": "%"},
      {"measurement": "second phase of aggregation with ADP", "setting": "platelet aggregation; Case 3, oral 200 mg", "value": "Inhibition"},
      {"measurement": "Aggregation with collagen, 1 h after taking 200 mg", "setting": "platelet aggregation; [14]", "value": 0, "unit": "%"},
      {"measurement": "Aggregation with collagen, 3 h after taking 200 mg", "setting": "platelet aggregation; [14]", "value": 0, "unit": "%"},
      {"measurement": "Aggregation with collagen 24 hours after last dose", "setting": "platelet aggregation; Case 3, oral, 24 h after last dose, before treatment 100%", "value": 0, "unit": "%"}
    ]}
  ]
}
